Experimental findings from article PMC12067145 (ACS Medicinal Chemistry Letters, 2025) are described below.

One series concerns the target Cav1.2 (Homo sapiens, UniProt Q13936). As to the kind of experiment: Cardiac ion channel MPC selectivity panel. Format: cell-based.
A short description of series [1]: Liver microsome intrinsic clearance (rat). The series is classed as in vitro ADME. Conditions: pH 7.4; rat liver microsomes; read-out: LMS CLINT rat. How it is done:
(§1) After a 5 min preincubation, the reaction was initiated by the addition of NADPH (1 mM). At selected time intervals between 0 ~ 60 min (e.g. 0, 3, 7, 15, 25, 45 and/or 60 min), aliquots were taken and subsequently placed into a 96-well plate containing cold acetonitrile with an internal standard (50 ng/mL carbamazepine). Plates were then centrifuged at 3000 rcf (4 °C) for 10 min, and the supernatant was transferred to a separate 96-well plate and diluted 1:1 with water for LC/MS/MS analysis. The in vitro half-life (T 1/2, min, Eq. 1), intrinsic clearance (CLint, mL/min/kg, Eq. 2), and subsequent predicted hepatic clearance (CLhep, mL/min/kg, Eq. 3) were determined employing the following equations: […]
(§2) where k represents the slope from linear regression analysis of the natural log percent remaining of a test compound as a function of incubation time […]
(§3) (2) CLint = in vitroT1/2 x mg microsomes x gram liver x kg body wt ascale-up factors: of 20 (human) or 45 (rat) or 87.5 (mouse) […]
(§4) where Qh (hepatic blood flow, mL/min/kg) is 21 (human) or 70 (rat) or 90 (mouse).
(§5) LC/MS/MS Bioanalysis of Samples from Plasma Protein Binding and Intrinsic Clearance […]
(§6) Samples were analyzed on a Thermo Electron TSQ Quantum Ultra triple quad mass spectrometer (San Jose, CA) via electrospray ionization (ESI) with two Themo Electron Accella pumps (San Jose, CA), and a Leap Technologies CTC PAL autosampler (Carrboro, NC). Analytes were separated by gradient elution on a dual column system with two Thermo Hypersil Gold (2.1 x 30 mm, 1.9 µm) columns (San Jose, CA) thermostated at 40 °C. HPLC mobile phase A was 0.1% formic acid in water and mobile phase B was 0.1% formic acid in acetonitrile. The gradient started […]
(§7) for 0.2 min; returned to 10% B in 0.1 min. The total run time was 1.3 min and the HPLC flow rate was 0.8 mL/min. While pump 1 ran the gradient method, pump 2 equilibrated the alternate column isocratically at 10% B. Compound optimization, data collection, and processing were performed using Thermo Electron's QuickQuan software (v2.3) and Xcalibur (v2.0.7 SP1). […]
Background: Microsomes from liver hold many membrane-bound enzymes, among them those of drug oxidation.

Series [2] is described as follows: Plasma protein binding (rat). Format: in vitro ADME. Conditions: pH 7.4, read-out: PPB rat. On the procedure:
0.3% DMSO - ΔRatio of 1 µM control compound)x100
In vitro Plasma protein binding and Brain homogenate binding: Determination of fraction unbound (f u) in plasma was conducted in vitro via equilibrium dialysis using HTDialysis (HTD) membrane plates. The top half of the plate was filled with 100 uL of Dubelco’s Phosphate Buffered Saline, pH 7.4 (DPBS). Compounds were diluted into plasma from each species (5 µM final concentration), which was aliquoted in triplicate to the ‘bottom half’ of the prepared HTD plate wells. The HTD plate was sealed and incubated for 6 hours at 37 °C. Following incubation, each well (both top and bottom halves) were transferred (20 µL) to the corresponding wells of a 96-shallow-well (V-bottom) plate. The daughter plates were then matrix-matched (DPBS side wells received equal volume of plasma, and plasma side wells received equal volume of DPBS), and extraction solution (120 µL; acetonitrile containing 50 nM carbamazepine as IS) was added to all wells of both daughter plates to precipitate protein and extract test article. The plates were then sealed and centrifuged (3500 rcf) for 10 minutes at ambient temperature. […]
The unbound fraction (f u) was calculated following the equation below, and mean values for each species were calculated from 3 replicates. […] Fraction unbound for both plasma and brain samples was determined using Equation 4.

For another series, the target named is Kir2.1 (Homo sapiens, UniProt P63252). Kind of series: Cardiac ion channel MPC selectivity panel. Format: cell-based.
Chain of Kir2.1 (P63252 whole entry): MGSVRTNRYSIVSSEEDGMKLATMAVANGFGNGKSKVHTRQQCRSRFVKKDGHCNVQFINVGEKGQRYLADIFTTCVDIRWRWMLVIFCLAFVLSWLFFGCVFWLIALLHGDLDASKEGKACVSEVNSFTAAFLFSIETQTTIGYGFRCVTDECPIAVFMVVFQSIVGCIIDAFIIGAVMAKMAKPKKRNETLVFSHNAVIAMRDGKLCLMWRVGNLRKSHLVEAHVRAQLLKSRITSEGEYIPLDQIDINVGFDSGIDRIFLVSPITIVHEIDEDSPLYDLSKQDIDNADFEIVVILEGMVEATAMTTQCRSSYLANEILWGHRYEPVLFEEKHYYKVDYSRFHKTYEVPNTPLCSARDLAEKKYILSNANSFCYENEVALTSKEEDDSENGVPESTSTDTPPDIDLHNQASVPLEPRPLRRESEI
The next series has as its target Sodium Channel, Site 2. Kind of series: Eurofins lead profiling screen (radioligand binding). Also noted: species or system Rat.
The nature of series [3]: Liver microsome intrinsic clearance (human). Conditions: pH 7.4; human liver microsomes; read-out: LMS CLINT human. The series is classed as in vitro ADME. How it is done: as §1, §2, §3, §4, §5, §6, §7
The target of the next series is T1, Adenosine A3 (Homo sapiens, UniProt P0DMS8).
T1 construct: Eurofins
T1 sequence (P0DMS8 whole entry): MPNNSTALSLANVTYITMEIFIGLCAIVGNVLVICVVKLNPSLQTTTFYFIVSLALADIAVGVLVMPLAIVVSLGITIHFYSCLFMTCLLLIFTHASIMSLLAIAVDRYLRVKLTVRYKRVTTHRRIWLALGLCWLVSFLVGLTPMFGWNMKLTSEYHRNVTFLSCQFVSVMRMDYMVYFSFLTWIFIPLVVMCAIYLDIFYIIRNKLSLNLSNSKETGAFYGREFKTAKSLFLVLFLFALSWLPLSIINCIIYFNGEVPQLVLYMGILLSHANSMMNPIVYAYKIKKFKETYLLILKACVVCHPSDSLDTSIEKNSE
Kind of series: Eurofins lead profiling screen (radioligand binding).

Another series concerns the target Dopamine D1 (Homo sapiens, UniProt P21728). Described as above.
Another series concerns the target Adenosine A2A (Homo sapiens, UniProt P29274). Described as above.
For the next series, the target named is Muscarinic M3 (Homo sapiens, UniProt P20309). Described as above.
Chain of Muscarinic M3 (P20309 whole entry): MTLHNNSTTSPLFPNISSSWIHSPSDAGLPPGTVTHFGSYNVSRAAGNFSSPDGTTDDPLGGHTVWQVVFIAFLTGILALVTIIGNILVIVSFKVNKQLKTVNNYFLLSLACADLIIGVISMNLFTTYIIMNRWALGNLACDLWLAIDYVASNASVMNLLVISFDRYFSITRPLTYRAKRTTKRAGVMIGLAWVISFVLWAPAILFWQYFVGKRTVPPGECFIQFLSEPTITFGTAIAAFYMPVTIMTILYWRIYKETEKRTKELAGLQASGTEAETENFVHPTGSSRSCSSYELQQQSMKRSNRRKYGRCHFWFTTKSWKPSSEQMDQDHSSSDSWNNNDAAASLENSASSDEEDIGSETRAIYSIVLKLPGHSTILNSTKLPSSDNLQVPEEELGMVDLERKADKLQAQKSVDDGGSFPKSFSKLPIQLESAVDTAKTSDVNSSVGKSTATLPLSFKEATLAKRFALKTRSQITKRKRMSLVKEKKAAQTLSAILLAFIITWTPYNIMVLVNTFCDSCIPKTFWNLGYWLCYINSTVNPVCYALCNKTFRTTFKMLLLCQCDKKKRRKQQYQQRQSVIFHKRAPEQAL
Another series has as its target GABAB1A (Homo sapiens, UniProt Q9UBS5). The series is described as above.
For the next series, the target named is Bradykinin B1 (Homo sapiens, UniProt P46663). The description is as above.
Chain of Bradykinin B1 (P46663 whole entry): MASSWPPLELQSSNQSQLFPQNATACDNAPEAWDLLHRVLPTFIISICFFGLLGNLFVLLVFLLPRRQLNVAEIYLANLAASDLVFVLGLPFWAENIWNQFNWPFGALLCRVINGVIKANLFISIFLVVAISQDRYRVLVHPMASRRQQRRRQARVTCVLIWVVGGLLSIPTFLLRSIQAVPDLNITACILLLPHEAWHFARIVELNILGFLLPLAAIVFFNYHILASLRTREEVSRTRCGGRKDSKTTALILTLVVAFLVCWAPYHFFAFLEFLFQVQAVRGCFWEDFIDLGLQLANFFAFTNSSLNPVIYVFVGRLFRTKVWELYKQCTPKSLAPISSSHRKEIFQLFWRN
Another series concerns the target Adrenergic β1 (Homo sapiens, UniProt P08588). The description is as above.
Another series has as its target Dopamine D4.2 (Homo sapiens, UniProt P21917, DEL265-296). The series is described as above.
Another series deals with Histamine H3 (Homo sapiens, UniProt Q9Y5N1). Described as above.
Chain of Histamine H3 (Q9Y5N1 whole entry): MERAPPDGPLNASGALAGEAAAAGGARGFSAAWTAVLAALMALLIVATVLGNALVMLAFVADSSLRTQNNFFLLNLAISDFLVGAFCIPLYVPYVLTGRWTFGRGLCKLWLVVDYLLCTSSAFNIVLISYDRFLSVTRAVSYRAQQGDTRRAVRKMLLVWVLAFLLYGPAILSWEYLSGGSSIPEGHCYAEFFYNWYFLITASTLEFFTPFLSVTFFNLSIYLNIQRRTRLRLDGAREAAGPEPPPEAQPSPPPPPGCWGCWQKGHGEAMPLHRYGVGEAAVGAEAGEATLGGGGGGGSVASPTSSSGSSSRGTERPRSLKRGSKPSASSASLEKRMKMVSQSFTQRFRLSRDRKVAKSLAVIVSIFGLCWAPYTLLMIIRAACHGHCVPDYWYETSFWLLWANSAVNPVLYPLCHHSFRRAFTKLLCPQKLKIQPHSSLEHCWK
The target of series [4] is Transporter, Serotonin (SERT) (Homo sapiens, UniProt P31645). Described as above.
In a further series the target is Adrenergic α1B (Rattus norvegicus, UniProt P15823). The description is as above.
The subject of a further series is Nicotinic Acetylcholine. The description is as above. More on the design: species or system Human.
In the next series the test system is GABAA, Muscimol, Central. Described as above. Also noted: species or system Rat.
A further series concerns the target Muscarinic M2 (Homo sapiens, UniProt P08172). Described as above.

Chain of Adenosine A2A (P29274 whole entry): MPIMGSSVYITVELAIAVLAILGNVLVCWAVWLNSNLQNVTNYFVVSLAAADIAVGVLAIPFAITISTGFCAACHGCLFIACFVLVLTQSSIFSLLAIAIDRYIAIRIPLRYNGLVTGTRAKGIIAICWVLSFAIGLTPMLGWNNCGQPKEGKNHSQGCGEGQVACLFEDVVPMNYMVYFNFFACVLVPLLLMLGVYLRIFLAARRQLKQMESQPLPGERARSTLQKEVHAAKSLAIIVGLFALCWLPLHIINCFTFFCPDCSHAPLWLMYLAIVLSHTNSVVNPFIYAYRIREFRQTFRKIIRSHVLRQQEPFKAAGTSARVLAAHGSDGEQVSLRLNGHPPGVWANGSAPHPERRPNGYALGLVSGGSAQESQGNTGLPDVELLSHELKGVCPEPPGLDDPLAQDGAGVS
Chain of GABAB1A (Q9UBS5 15-961 limits assumed): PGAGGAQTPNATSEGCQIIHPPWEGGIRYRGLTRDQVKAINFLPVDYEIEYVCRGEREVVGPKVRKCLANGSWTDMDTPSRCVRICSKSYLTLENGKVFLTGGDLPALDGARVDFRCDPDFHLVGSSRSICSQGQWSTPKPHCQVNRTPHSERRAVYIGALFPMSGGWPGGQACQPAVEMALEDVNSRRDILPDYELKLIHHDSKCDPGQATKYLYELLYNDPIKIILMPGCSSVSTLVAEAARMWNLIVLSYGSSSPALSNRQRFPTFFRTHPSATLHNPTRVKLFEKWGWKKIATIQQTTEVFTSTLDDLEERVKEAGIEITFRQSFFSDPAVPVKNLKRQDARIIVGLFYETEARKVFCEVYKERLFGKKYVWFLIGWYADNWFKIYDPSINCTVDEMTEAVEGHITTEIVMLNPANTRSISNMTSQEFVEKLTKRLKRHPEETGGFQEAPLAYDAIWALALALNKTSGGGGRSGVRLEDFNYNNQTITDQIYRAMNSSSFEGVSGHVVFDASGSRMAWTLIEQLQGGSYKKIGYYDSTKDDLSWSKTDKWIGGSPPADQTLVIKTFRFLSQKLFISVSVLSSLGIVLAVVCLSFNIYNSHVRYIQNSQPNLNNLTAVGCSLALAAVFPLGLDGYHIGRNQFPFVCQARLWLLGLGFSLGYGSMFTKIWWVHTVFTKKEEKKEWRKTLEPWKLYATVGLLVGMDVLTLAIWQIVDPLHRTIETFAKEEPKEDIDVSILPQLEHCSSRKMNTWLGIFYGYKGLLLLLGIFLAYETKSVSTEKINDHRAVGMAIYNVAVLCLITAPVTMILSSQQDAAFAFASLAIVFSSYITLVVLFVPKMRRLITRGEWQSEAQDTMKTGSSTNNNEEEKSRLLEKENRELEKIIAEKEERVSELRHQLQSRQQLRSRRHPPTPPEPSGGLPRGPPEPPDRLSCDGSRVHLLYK
Chain of Dopamine D1 (P21728 whole entry): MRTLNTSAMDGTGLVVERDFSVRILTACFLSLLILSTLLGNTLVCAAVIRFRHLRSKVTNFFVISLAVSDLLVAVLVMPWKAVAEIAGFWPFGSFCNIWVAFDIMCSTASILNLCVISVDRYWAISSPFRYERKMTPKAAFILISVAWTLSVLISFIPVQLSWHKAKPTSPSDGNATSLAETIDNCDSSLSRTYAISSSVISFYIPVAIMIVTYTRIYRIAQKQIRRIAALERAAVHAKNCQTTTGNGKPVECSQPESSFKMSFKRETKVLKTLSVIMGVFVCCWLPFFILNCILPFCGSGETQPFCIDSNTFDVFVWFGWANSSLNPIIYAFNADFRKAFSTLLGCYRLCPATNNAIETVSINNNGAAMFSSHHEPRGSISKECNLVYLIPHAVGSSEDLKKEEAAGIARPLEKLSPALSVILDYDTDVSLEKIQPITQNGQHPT
Chain of Adrenergic β1 (P08588 whole entry): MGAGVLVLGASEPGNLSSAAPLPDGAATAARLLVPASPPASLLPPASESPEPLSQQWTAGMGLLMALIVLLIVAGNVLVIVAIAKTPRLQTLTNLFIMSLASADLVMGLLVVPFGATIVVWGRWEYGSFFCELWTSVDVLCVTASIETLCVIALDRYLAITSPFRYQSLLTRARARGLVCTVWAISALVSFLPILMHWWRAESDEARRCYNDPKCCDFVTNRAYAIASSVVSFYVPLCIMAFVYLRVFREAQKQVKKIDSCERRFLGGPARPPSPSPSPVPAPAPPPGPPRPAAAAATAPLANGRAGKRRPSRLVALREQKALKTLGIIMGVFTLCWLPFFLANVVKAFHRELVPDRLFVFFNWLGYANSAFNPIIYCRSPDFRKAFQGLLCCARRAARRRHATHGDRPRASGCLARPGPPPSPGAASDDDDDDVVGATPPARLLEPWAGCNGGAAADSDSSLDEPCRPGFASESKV
Chain of Dopamine D4.2 (P21917 with tags, fused parts or gaps DEL265-296): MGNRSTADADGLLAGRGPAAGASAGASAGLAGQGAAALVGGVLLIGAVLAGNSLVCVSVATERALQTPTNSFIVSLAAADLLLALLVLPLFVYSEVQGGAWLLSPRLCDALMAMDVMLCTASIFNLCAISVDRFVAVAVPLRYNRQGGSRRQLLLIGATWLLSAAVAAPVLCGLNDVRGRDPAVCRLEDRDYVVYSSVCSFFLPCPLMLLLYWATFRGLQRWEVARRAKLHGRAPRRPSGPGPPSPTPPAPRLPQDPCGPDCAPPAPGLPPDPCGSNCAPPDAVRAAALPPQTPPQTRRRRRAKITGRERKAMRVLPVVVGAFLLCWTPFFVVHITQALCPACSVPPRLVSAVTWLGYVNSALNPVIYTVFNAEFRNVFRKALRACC

In the case of `Cc1cc(C#Cc2ccc(F)cc2)cnc1NC(=O)c1cc(NC(=O)OC(C)(C)C)ccc1Cl` [Compound 14c], on Cav1.2, the “% at 10 μM, Cav1.2” value is less than 50%. Moreover, the CLint scaled at 1 µM in series [1] worked out at 29 mL/min/kg; in [3], 7.5 mL/min/kg. Moreover, in series [2], the fraction unbound at 6 h, 5 µM was found to be 0.001. Moreover, the “% at 10 μM, Kir2.1” value at Kir2.1 was less than 50%. The Ki at Sodium Channel, Site 2 came out at 650 nM; on Adenosine A3, 480 nM.

With `O=C(NCc1ccc(OC(F)(F)F)cc1F)c1ccc2ncnn2c1` [ONO-2920632], the inhibition at 10 µM at Dopamine D1 was 8%; at Adenosine A2A, 3%; on Muscarinic M3 it was 7%; on GABAB1A, 0%; on Bradykinin B1 it was 27%; at Adrenergic β1, -1%. In addition, the inhibition at 10 µM at Dopamine D4.2 is 5%; at Histamine H3, 4%; in series [4], -3%; at Adrenergic α1B, 11%; at Adenosine A3, 84%; on Muscarinic M2 it was 0%. For the same compound, the “% Inhibition at 10 µM” value with Sodium Channel, Site 2 (10 µM) is 84%; in the series on Nicotinic Acetylcholine, -10%; with GABAA, Muscimol, Central, 2%.

What is called Ki is the equilibrium dissociation constant of an inhibitor or competing ligand from its target. Low values mean higher affinity, high ones lower affinity. What is called inhibition is the drop in the measured response relative to a control, in per cent. Usually % Inhibition stands for the change of the read-out against control, counted positive when it falls.
